Measurements as given in PMC10313066, “In-vitro high-throughput library screening—Kinetics and molecular docking studies of potent inhibitors of α-glucosidase” (PLOS ONE, 2023).

Legend:
α-glucosidase [1] = molecular target: T1, α-glucosidase (Saccharomyces cerevisiae, UniProt P53341); assay: α-glucosidase inhibition assay (96-well, pNPG substrate, 405 nm); type: biochemical; conditions: S3 Table; for OD of sample: absorbance at 405 nm; for inhibition at 500 µM (stock): test compound 20 μL of 0.5 mM, read-out: Percentage Inhibition
T1 sequence (P53341 whole entry): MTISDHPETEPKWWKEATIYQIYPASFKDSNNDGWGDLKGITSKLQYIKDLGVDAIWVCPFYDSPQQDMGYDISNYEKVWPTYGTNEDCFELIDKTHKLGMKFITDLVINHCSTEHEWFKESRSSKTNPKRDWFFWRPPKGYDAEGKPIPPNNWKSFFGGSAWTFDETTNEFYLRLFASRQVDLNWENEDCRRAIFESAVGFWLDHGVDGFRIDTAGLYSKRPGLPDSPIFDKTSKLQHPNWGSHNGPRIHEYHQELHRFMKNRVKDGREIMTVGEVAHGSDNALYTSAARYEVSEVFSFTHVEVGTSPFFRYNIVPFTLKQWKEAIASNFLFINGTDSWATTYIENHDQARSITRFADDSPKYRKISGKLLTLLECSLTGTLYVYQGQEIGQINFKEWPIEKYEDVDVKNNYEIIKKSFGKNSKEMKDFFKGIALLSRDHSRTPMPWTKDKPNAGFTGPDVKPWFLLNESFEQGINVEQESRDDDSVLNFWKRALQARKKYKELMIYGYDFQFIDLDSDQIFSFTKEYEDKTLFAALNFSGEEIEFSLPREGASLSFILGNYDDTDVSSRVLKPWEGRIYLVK
Experimental: The assay is based on the method given by Pistia-Brueggeman with slight modifications. In a 96-well plate 120 μL of sodium phosphate buffer (pH = 7) was taken and 20 μL of the enzyme (2U/mL) was added. Then 20 μL of test compound (0.5 mM) was added and then incubated for 15 min. at 37 °C. In sequence, substrate pNPG (20 μL, 1mM) was taken in each well, and dissolved in buffer. The reaction mixture was again incubated for 15 min. at 37 °C. The reaction was stopped by the addition of 20 μL of 0.1 mM Na2CO3, so that the final volume reaches 200 μL. The activity of the enzyme was measured spectrophotometrically at 405 nm by measuring the concentration of product formed, using SpectraMax M2 (Molecular Devices CA, USA). Each sample was taken in triplicate and the % inhibition was measured. […]

carbonic anhydrase II = molecular target: carbonic anhydrase II; design: method as in earlier work; conditions: cited from earlier work
urease = tested on: urease; design: method as in earlier work; conditions: cited from earlier work
α-glucosidase [2] = molecular target: T1, α-glucosidase; assay: Kinetic studies, Line-weaver Burk plot (type of enzyme inhibition); type: biochemical; conditions: Vmax and Km both change with inhibitor concentration
Experimental: The type of enzyme inhibition was determined by using the Line-weaver Burk plot. For this, out of 4 different concentrations of each sample, each concentration is analyzed against 4 different concentrations of substrate ranging from 1 mM to 0.125 mM. The inverse of maximum velocity (1/Vmax), obtained for each concentration, is plotted against the inverse of substrate concentrations (1/[S]) to find out type of enzyme inhibition.

| SMILES | OD of sample (α-glucosidase [1]) | inhibition at 500 µM (stock) (α-glucosidase [1]) [%] | mode (type) of enzyme inhibition (α-glucosidase [2]) | IC50 (carbonic anhydrase II) [µM] | IC50 (urease) [µM] |
| --- | --- | --- | --- | --- | --- |
| O=[N+]([O-])c1ccc(N/N=C\c2ccc(O)cc2)c([N+](=O)[O-])c1 [compound 5] | 0.62 |  |  |  |  |
| O=C(C1=C(c2ccccc2)NC(=S)NC1c1cccc(O)c1)c1ccccc1 (stereo not drawn) [(4-(3-hydroxyphenyl)-6-phenyl-2-thioxo-1,2,3,4-tetrahydropyrimidin-5-yl)phenyl)methanone] |  |  |  | 98 |  |
| CCCCCCCCCCCCSc1nc2ccccc2n1CC(=O)N/N=C/c1ccc(O)c(OCC)c1 [compound 96] | 0.64 | 80.1 |  |  |  |
| N=C(N)NCCC[C@@H](N)c1nnc(-c2cccs2)o1 [(R)-1-(4-amino-4-(5-(thiophen-2-yl)-1,3,4-oxadiazol-2-yl)butyl)guanidine] |  |  |  |  | 47 |

The next lines start with results.

| OD of sample (α-glucosidase [1]) | inhibition at 500 µM (stock) (α-glucosidase [1]) [%] | mode (type) of enzyme inhibition (α-glucosidase [2]) | SMILES | IC50 (carbonic anhydrase II) [µM] | IC50 (urease) [µM] |
| --- | --- | --- | --- | --- | --- |
| 0.49 | 81.9 |  | COc1ccc(S(=O)(=O)N2CCC(c3nnc(SC(C)C(=O)Nc4ccc(C)cc4)n3-c3ccccc3)CC2)cc1 (stereo not drawn) [compound 185] |  |  |
| 0.39 | 85.6 |  | O=C1Oc2ccccc2C(=O)/C1=C/c1ccc(-c2ccccc2)cc1 [compound 54] |  |  |
| 0.33 | 90 | un-competitive | Clc1ccc(-c2nnc(-c3ccc[nH]3)o2)c(Cl)c1 [compound 25, 2-(2,4-dichlorophenyl)-5-(1H-pyrrol-2-yl)-1,3,4-oxadiazole] |  |  |
| 0.30 | 91.2 | un-competitive | CCSc1nc2ccccc2n1CC(=O)N/N=C/c1ccc(O)cc1O [compound 228, (E)-N’-(2,4-dihydroxybenzylidene)-2-(2-(ethylthio)-1H-benzo[d]imidazol-1-yl)acetohydrazide] |  |  |
